# How the values were obtained:
# CCR1 [1] = molecular target: T1, CCR1 (Homo sapiens, UniProt P32246); assay: Calcium flux in response to MIP-1 alpha in CCR1-transfected cells, Method A (Fluo-4 NW, FLIPR TETRA); type: cell-based; details: cells stably expressing recombinant CCR1 and G-alpha-16; MIP-1 alpha at EC80; 1 hour incubation at room temperature
# T1 sequence (P32246 1-355): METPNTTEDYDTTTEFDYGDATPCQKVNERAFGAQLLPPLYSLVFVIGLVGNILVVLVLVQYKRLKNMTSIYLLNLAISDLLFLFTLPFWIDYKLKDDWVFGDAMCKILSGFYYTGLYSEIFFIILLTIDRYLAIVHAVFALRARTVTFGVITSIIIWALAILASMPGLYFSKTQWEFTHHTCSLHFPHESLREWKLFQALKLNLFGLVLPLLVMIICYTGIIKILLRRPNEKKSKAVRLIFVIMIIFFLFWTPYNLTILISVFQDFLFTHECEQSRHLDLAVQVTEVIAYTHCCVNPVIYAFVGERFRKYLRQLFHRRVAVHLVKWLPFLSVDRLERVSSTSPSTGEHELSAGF
# Protocol: (§1) Compounds are assessed for the ability to block the interaction of CCR1 and its ligand in a functional cellular assay measuring calcium flux in response to MIP-1α in CCR1-transfected cells.
# On the day of the assay, the cells are transferred to a beaker and dye-loaded in bulk using a Fluo-4 NW Calcium Assay Kit with probenecid (Invitrogen F36205) at 0.8E6 cells/mL for 1 hour at room temperature. After 1 hour, they are seeded in a 384-well tissue culture-treated plate at a density of 20,000 cells/well. Appropriately diluted test compound is added to the well to achieve a top concentration of 3,000 nM (diluted 3-fold with 10 doses total). The final concentration of DMSO is 1%. […] The cells are allowed to incubate 1 hour in the dark at room temperature. The plates are transferred to the FLIPR TETRA where MIP-1 alpha in 1% BSA is added at the EC80 final concentration. Wells +/−MIP-1 alpha containing diluted DMSO instead of compound serve as the controls.
# CCR1 [2] = molecular target: T1, CCR1; assay: Calcium flux in response to MIP-1 alpha in CCR1-transfected cells, Method B (Calcium 4 dye, […] FDSS6000); type: cell-based; details: cells stably expressing recombinant CCR1 and G-alpha-16; MIP-1 alpha at EC80; 30 minutes at 37 C then 30 minutes at room temperature
# Protocol: as §1
# Method B: Non-adherent cells purchased from Chemicon Corporation (HTS005C), stably expressing recombinant CCR1 and G-alpha-16 are grown in RPMI 1640 medium (Mediatech 10-080-CM) supplemented with 10% FBS, 0.4 mg/mL Geneticin and penicillin/streptomycin. On the day of the assay, the cells are loaded with Calcium 4 dye (Molecular Devices R7448) with Probenecid (Invitrogen P346400) at 8E5 cells/mL for 1 hour at room temperature. After 1 hour, they are seeded in a 384-well tissue culture-treated plate at a density of 20,000 cells/well. Appropriately diluted test compound is added to the well to achieve a top concentration of 3,000 nM (diluted 4-fold with 10 doses total). The final concentration of DMSO is 1%. The buffer is HBSS (Invitrogen 14025) with 20 mM HEPES at pH 7.4. The cells incubate 30 minutes at 37 C and then 30 minutes at room temperature. The plates are transferred to the […] FDSS6000 where MIP-1 alpha in 1% BSA is added at the EC80 final concentration. All plates must be read within 4 hours of the start of dye-loading. Wells +/−MIP-1alpha containing diluted DMSO instead of compound serve as the controls. Data are analyzed using Activity Base software.
SMILES,IC50 (CCR1 [1]) [nM],IC50 (CCR1 [2]) [nM]
"COc1cc(CNC(=O)c2cccc3c2cnn3-c2ccc(F)cc2)cc(OC)c1 [1-(4-Fluoro-phenyl)-1H-indazole-4-carboxylic acid 3,5-dimethoxy-benzylamide]",25,–
O=C(NCc1cccc(Br)c1)c1cccc2c1cnn2-c1ccc(F)cc1 [1-(4-Fluoro-phenyl)-1H-indazole-4-carboxylic acid 3-bromo-benzylamide],76,–
CC(=O)NCCNS(=O)(=O)c1ccc(CNC(=O)c2cccc3c2cnn3-c2ccc(F)cc2)cc1 [1-(4-Fluoro-phenyl)-1H-indazole-4-carboxylic acid 4-(2-acetylamino-ethylsulfamoyl)-benzylamide],110,–
CN(C)C1CCN(S(=O)(=O)c2ccc(CNC(=O)c3cccc4c3cnn4-c3ccc(F)cc3)cc2)CC1 [1-(4-Fluoro-phenyl)-1H-indazole-4-carboxylic acid 4-(4-dimethylamino-piperidine-1-sulfonyl)-benzylamide],23,–
CC(C)NS(=O)(=O)Cc1ccc(CNC(=O)c2cccc3c2cnn3-c2ccc(F)cc2)cc1 [1-(4-Fluoro-phenyl)-1H-indazole-4-carboxylic acid 4-(isopropylsulfamoyl-methyl)-benzylamide],55,–
O=C(NCc1ccc(S(=O)(=O)NC2CCOCC2)cc1)c1cccc2c1cnn2-c1ccc(F)cc1 [1-(4-Fluoro-phenyl)-1H-indazole-4-carboxylic acid 4-(tetrahydro-pyran-4-ylsulfamoyl)-benzylamide],20,–
CN1CCC(N(C)S(=O)(=O)c2ccc(CNC(=O)c3cccc4c3cnn4-c3ccc(F)cc3)cc2)CC1 [1-(4-Fluoro-phenyl)-1H-indazole-4-carboxylic acid 4-[methyl-(1-methyl-piperidin-4-yl)-sulfamoyl]-benzylamide],44,–
N#Cc1cc(CNC(=O)c2cccc3c2cnn3-c2ccc(F)cc2)ccn1 [1-(4-Fluoro-phenyl)-1H-indazole-4-carboxylic acid (2-cyano-pyridin-4-ylmethyl)-amide],120,–
COc1cc(CNC(=O)c2cccc3c2cnn3-c2ccc(F)cc2)ccn1 [1-(4-Fluoro-phenyl)-1H-indazole-4-carboxylic acid (2-methoxy-pyridin-4-ylmethyl)-amide],22,–
CC(NC(=O)c1cccc2c1cnn2-c1ccc(F)cc1)c1cccc(C(F)(F)F)c1 (stereo not drawn) [1-(4-Fluoro-phenyl)-1H-indazole-4-carboxylic acid [1-(3-trifluoromethyl-phenyl)-ethyl]-amide],14,–
CCC[C@H](NC(=O)c1cccc2c1cnn2-c1ccc(F)cc1)c1cccc(Br)c1 [1-(4-Fluoro-phenyl)-1H-indazole-4-carboxylic acid [(S)-1-(3-bromo-phenyl)-butyl]-amide],19,–
CC[C@H](NC(=O)c1cccc2c1cnn2-c1ccc(F)cc1)c1ccc(S(C)(=O)=O)nc1 [1-(4-Fluoro-phenyl)-1H-indazole-4-carboxylic acid [(S)-1-(6-methanesulfonyl-pyridin-3-yl)-propyl]-amide],–,2
CNS(=O)(=O)c1ccc(CNC(=O)c2cc(S(C)(=O)=O)cc3c2cnn3-c2ccc(F)cc2)cc1 [1-(4-Fluoro-phenyl)-6-methanesulfonyl-1H-indazole-4-carboxylic acid 4-methylsulfamoyl-benzylamide],28,–
CNS(=O)(=O)c1ccc(CNC(=O)c2cc(C)cc3c2cnn3-c2ccc(F)cc2)cc1 [1-(4-Fluoro-phenyl)-6-methyl-1H-indazole-4-carboxylic acid 4-methylsulfamoyl-benzylamide],20,–
CC[C@H](NC(=O)c1cc(Br)cc2c1cnn2-c1ccc(F)cc1)c1ccc(S(C)(=O)=O)nc1 [6-Bromo-1-(4-fluoro-phenyl)-1H-indazole-4-carboxylic acid [(S)-1-(6-methanesulfonyl-pyridin-3-yl)-propyl]-amide],–,23
CN1CCC(NS(=O)(=O)c2ccc(CNC(=O)c3cc(C#N)cc4c3cnn4-c3ccc(F)cc3)cc2)CC1 [6-Cyano-1-(4-fluoro-phenyl)-1H-indazole-4-carboxylic acid 4-(1-methyl-piperidin-4-ylsulfamoyl)-benzylamide],18,–
N#Cc1cc(C(=O)NCc2ccc(Br)nc2)c2cnn(-c3ccc(F)cc3)c2c1 [6-Cyano-1-(4-fluoro-phenyl)-1H-indazole-4-carboxylic acid (6-bromo-pyridin-3-ylmethyl)-amide],21,–
CCOC(=O)COc1cc(CNC(=O)c2cccc3c2cnn3-c2ccc(F)cc2)ccn1 [[4-({[1-(4-Fluoro-phenyl)-1H-indazole-4-carbonyl]-amino}-methyl)-pyridin-2-yloxy]-acetic acid ethyl ester],140,–

# The remaining lines, values ahead:
IC50 (CCR1 [1]) [nM],IC50 (CCR1 [2]) [nM],SMILES
6.7,–,CS(=O)(=O)c1ccc(CNC(=O)c2cccc3c2cnn3-c2ccc(F)cc2)c(Cl)c1 [1-(4-Fluoro-phenyl)-1H-indazole-4-carboxylic acid 2-chloro-4-methanesulfonyl-benzylamide]
4,–,CNS(=O)(=O)c1ccc(CNC(=O)c2cccc3c2cnn3-c2ccc(F)cc2)c(Cl)c1 [1-(4-Fluoro-phenyl)-1H-indazole-4-carboxylic acid 2-chloro-4-methylsulfamoyl-benzylamide]
5.4,–,CNS(=O)(=O)c1ccc(CNC(=O)c2cccc3c2cnn3-c2ccc(F)cc2)c(F)c1 [1-(4-Fluoro-phenyl)-1H-indazole-4-carboxylic acid 2-fluoro-4-methylsulfamoyl-benzylamide]
9.2,–,O=C(NCc1ccc(S(=O)(=O)NCCO)cc1)c1cccc2c1cnn2-c1ccc(F)cc1 [1-(4-Fluoro-phenyl)-1H-indazole-4-carboxylic acid 4-(2-hydroxy-ethylsulfamoyl)-benzylamide]
10,–,COCCNS(=O)(=O)c1ccc(CNC(=O)c2cccc3c2cnn3-c2ccc(F)cc2)cc1 [1-(4-Fluoro-phenyl)-1H-indazole-4-carboxylic acid 4-(2-methoxy-ethylsulfamoyl)-benzylamide]
14,–,O=C(NCc1ccc(S(=O)(=O)N2CCOCC2)cc1)c1cccc2c1cnn2-c1ccc(F)cc1 [1-(4-Fluoro-phenyl)-1H-indazole-4-carboxylic acid 4-(morpholine-4-sulfonyl)-benzylamide]
2,–,CS(=O)(=O)c1cccc(CNC(=O)c2cc(C#N)cc3c2cnn3-c2ccc(F)cc2)c1 [6-Cyano-1-(4-fluoro-phenyl)-1H-indazole-4-carboxylic acid 3-methanesulfonyl-benzylamide]
1.5,–,CN1CCN(S(=O)(=O)c2ccc(CNC(=O)c3cc(C#N)cc4c3cnn4-c3ccc(F)cc3)cc2)CC1 [6-Cyano-1-(4-fluoro-phenyl)-1H-indazole-4-carboxylic acid 4-(4-methyl-piperazine-1-sulfonyl)-benzylamide]
5.1,–,CN1CCC(N(C)S(=O)(=O)c2ccc(CNC(=O)c3cc(C#N)cc4c3cnn4-c3ccc(F)cc3)cc2)CC1 [6-Cyano-1-(4-fluoro-phenyl)-1H-indazole-4-carboxylic acid 4-[methyl-(1-methyl-piperidin-4-yl)-sulfamoyl]-benzylamide]
0.3,–,CNS(=O)(=O)c1ccc(CNC(=O)c2cc(C#N)cc3c2cnn3-c2ccc(F)cc2)cc1 [6-Cyano-1-(4-fluoro-phenyl)-1H-indazole-4-carboxylic acid 4-methylsulfamoyl-benzylamide]
7.1,–,CS(=O)(=O)c1ccc(CNC(=O)c2cc(C#N)cc3c2cnn3-c2ccc(F)cc2)cn1 [6-Cyano-1-(4-fluoro-phenyl)-1H-indazole-4-carboxylic acid (6-methanesulfonyl-pyridin-3-ylmethyl)-amide]
4.4,–,CS(=O)(=O)Nc1ccc(CNC(=O)c2cc(C#N)cc3c2cnn3-c2ccc(F)cc2)cn1 [6-Cyano-1-(4-fluoro-phenyl)-1H-indazole-4-carboxylic acid (6-methanesulfonylamino-pyridin-3-ylmethyl)-amide]
